What was measured:
[1] = target: Transient receptor potential cation channel subfamily V member 1 (Homo sapiens) (UniProt Q8NER1); assay: Antagonistic activity against human transient receptor potential vanilloid type 1 in FLIPR assay; assay type: functional
[2] = Inhibition of capsaicin- response in rat dorsal root ganglion; assay type: functional
[3] = Antagonistic activity against rat transient receptor potential vanilloid type 1 expressed in HEK293 cells compared to capsaicin; assay type: functional
[4] = target: Transient receptor potential cation channel subfamily V member 1 (Cavia porcellus) (UniProt Q6R5A3); assay: Antagonistic activity against guinea pig Transient receptor potential vanilloid type 1 expressed in HEK293 cells compared to capsaicin
Sequence of Transient receptor potential cation channel subfamily V member 1 (Cavia porcellus) (Q6R5A3 whole entry, looked up): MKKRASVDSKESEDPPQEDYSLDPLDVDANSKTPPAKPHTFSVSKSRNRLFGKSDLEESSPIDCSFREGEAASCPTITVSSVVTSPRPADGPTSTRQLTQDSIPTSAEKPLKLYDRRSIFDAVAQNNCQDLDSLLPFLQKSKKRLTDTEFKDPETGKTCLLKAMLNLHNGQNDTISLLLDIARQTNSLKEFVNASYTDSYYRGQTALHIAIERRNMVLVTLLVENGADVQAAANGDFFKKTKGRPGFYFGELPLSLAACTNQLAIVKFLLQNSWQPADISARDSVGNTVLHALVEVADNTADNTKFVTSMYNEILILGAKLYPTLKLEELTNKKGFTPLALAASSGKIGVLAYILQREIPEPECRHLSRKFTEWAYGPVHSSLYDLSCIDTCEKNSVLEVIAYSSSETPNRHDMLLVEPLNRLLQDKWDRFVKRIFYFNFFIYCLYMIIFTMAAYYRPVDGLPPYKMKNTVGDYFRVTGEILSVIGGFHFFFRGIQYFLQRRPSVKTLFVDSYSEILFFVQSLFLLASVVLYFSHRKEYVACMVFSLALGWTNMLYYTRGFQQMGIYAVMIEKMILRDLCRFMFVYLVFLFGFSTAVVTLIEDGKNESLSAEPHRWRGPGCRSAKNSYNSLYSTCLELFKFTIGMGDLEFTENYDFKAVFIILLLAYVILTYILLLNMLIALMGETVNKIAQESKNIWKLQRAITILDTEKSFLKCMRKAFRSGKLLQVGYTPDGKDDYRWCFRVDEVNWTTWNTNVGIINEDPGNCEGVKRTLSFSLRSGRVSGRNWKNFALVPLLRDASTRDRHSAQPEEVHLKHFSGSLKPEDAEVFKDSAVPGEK

Sequence of Transient receptor potential cation channel subfamily V member 1 (Homo sapiens) (Q8NER1 whole entry): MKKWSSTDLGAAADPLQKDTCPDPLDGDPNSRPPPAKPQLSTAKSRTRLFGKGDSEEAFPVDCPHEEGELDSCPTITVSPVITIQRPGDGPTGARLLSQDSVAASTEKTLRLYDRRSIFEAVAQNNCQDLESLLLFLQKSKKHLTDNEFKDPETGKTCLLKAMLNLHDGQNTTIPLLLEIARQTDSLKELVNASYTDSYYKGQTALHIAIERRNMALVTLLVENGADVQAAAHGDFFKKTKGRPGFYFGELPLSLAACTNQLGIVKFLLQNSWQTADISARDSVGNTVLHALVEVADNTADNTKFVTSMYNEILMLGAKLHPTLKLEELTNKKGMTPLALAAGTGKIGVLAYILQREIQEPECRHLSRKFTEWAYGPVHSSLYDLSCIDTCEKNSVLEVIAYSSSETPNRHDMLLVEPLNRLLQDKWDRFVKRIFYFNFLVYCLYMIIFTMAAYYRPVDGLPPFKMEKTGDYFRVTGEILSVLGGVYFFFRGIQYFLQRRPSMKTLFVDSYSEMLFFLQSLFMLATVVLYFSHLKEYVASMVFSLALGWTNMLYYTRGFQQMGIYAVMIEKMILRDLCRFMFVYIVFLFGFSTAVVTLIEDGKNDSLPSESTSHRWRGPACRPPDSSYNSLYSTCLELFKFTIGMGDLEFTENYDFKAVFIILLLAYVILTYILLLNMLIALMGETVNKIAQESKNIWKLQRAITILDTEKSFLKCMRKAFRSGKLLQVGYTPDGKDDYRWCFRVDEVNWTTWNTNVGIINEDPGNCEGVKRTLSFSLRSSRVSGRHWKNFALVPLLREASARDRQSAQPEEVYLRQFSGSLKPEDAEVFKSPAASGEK

Row | pKb [1] | pKb [4] | Structure (SMILES) | pKb [2] | pKb [3]
1 | 7.5 |  | Oc1cc2c(cc1O)CN(C(=S)NCCc1ccc(Cl)cc1)CCC2 |  | 
2 | 7.8 | 7.5 | CCN(CCNC(=O)Nc1ccccc1Br)c1cccc(C)c1 | 7.4 | 7.7
3 | 7.7 |  | COc1cccc(NC(=O)/C=C/c2ccc(Cl)cc2)c1 |  | 
